Reference: article PMC2358886, “Evolution of pharmacologic specificity in the pregnane X receptor” (BMC Evolutionary Biology, 2008)
Where two headings read alike, the source gives them in different places.

Columns and labels:
human PXR [1] = target: T1, human PXR (Homo sapiens, UniProt O75469); details: for hPXR Efficacy: human
T1 sequence (O75469 1-434): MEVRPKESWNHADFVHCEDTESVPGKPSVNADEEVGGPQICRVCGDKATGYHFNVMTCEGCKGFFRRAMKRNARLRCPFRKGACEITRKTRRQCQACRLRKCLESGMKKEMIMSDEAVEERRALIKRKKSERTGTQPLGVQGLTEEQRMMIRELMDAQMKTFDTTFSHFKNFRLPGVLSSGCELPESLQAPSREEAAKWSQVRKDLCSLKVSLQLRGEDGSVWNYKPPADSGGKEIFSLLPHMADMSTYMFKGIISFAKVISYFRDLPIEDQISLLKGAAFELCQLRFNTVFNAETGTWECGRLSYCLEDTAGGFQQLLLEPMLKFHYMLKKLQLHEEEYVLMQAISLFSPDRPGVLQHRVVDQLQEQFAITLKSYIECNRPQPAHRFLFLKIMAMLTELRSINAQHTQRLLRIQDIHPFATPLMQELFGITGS

zebrafish PXR [2] = target: T2, zebrafish PXR (Danio rerio, UniProt A5WYG8)
T2 sequence (A5WYG8 144-430): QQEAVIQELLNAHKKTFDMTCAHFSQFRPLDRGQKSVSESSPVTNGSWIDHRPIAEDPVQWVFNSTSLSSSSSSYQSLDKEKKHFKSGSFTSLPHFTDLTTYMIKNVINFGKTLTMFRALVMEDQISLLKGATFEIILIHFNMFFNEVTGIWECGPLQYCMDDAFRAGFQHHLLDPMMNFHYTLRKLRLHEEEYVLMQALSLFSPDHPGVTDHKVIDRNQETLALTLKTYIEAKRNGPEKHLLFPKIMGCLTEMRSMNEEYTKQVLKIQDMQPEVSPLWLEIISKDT

HepG2 cells [3] = test system: HepG2 cells
chicken PXR [4] = target: T3, chicken PXR (Gallus gallus, UniProt Q9DFH3)
T3 sequence (Q9DFH3 1-391): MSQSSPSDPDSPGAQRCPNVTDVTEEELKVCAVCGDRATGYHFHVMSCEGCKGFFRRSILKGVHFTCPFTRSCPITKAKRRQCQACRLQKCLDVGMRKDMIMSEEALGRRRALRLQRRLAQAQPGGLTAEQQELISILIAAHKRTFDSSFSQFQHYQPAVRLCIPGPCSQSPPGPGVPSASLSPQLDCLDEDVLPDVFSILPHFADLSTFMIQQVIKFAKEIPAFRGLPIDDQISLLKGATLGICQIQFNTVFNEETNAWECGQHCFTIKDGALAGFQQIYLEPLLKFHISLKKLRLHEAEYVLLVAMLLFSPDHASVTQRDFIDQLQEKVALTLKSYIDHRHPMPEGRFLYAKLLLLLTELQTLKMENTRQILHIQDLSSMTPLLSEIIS

zebrafish PXR [5] = target: T2, zebrafish PXR; assay: cell-based
chicken PXR [6] = target: T3, chicken PXR; assay: cell-based
human PXR [7] = target: T1, human PXR; assay: PXR activation luciferase reporter assay, human PXR in HepG2-NTCP cells
mouse PXR [8] = target: T4, mouse PXR (Mus musculus, UniProt O54915)
T4 sequence (O54915 1-431): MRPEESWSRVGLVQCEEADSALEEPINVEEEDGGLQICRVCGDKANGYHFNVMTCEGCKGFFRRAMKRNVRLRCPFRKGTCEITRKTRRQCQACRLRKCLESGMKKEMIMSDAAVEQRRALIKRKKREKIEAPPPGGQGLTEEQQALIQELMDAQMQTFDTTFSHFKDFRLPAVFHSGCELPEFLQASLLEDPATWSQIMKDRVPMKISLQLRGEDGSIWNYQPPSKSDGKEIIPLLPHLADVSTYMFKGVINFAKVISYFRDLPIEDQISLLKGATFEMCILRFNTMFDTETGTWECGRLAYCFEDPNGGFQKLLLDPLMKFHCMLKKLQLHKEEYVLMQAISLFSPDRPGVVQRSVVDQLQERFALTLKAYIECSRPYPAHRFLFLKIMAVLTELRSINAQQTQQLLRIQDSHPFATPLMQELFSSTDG

rat PXR [9] = target: T5, rat PXR (Rattus norvegicus, UniProt Q9R1A7); details: for Rat PXR efficacy, ε: relative to 20 μM pregnenolone 16α-carbonitrile, assigned an efficacy of 1.0
T5 sequence (Q9R1A7 1-431): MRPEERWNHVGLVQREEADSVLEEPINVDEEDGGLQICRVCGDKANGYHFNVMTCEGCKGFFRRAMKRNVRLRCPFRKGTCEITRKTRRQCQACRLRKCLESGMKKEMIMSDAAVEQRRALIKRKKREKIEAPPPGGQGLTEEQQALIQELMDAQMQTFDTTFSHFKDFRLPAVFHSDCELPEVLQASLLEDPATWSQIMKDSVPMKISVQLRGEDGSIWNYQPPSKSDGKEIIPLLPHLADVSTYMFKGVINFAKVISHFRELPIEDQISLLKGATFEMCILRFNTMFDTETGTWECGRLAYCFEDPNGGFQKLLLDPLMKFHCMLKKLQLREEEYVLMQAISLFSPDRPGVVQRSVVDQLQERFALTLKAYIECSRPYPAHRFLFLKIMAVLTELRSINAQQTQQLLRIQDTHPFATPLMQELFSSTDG

rat PXR [10] = target: T5, rat PXR; assay: cell-based
rabbit PXR = target: T6, rabbit PXR (Oryctolagus cuniculus, UniProt Q9TU02); assay: PXR activation luciferase reporter assay, rabbit PXR; details: for Rabbit PXR efficacy, ε: relative to 50 μM 5α-pregnan-3,20-dione, assigned an efficacy of 1.0
T6 sequence (Q9TU02 1-411): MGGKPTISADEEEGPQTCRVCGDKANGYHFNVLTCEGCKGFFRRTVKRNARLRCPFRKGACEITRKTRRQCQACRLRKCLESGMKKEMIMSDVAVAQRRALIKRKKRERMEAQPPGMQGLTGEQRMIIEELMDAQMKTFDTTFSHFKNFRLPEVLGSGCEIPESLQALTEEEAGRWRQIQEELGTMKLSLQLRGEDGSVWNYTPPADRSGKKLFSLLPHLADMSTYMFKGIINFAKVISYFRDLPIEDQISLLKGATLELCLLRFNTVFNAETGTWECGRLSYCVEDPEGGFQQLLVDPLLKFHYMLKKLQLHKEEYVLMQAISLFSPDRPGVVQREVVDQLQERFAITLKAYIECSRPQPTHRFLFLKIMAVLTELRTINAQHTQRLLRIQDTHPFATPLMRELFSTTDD

mouse PXR [11] = target: T4, mouse PXR; assay: cell-based
HepG2 cells [12] = assay: Toxicity assays in HepG2 cells (MTT and alamar blue reduction); details: lowest concentration that produced significant toxicity in the HepG2 cells
[13] = relative to 20 μM 5α-androstan-3α-ol, assigned an efficacy of 1.0
[14] = relative to 20 μM nifedipine, assigned an efficacy of 1.0
[15] = zfPXR Activity, -log(EC50), EC50 in molar units, activation of zebrafish PXR
[16] = hPXR Activity, -log(EC50), EC50 in molar units, activation of human PXR
[17] = -log(EC50), EC50 in molar units
[18] = relative to 20 μM pregnenolone 16α-carbonitrile, assigned an efficacy of 1.0

C[C@]12CC[C@@H](O)C[C@@H]1CC[C@@H]1[C@@H]2CC[C@]2(C)[C@@H](O)CC[C@@H]12 [AN1, 5α-Androstan-3α,17β-diol]
hPXR Efficacy (human PXR [1]): 0.68
zfPXR Efficacy (zebrafish PXR [2]; [13]): 0.84
Toxicity (HepG2 cells [3]): None
Chicken PXR efficacy, ε (chicken PXR [4]; [14]): 2.28
EC50 (zebrafish PXR [5]; [15]): 6.46 µM
EC50 (chicken PXR [6]): 8.51 µM
EC50 (human PXR [7]; [16]): 4.17 µM

C[C@@]12CCC[C@H]1[C@@H]1CC[C@H]3C[C@H](O)CC[C@]3(C)[C@H]1CC2 [AN3, 5α-Androstan-3α-ol]
hPXR Efficacy (human PXR [1]): 0.5
zfPXR Efficacy (zebrafish PXR [2]; [13]): 1.00
Toxicity (HepG2 cells [3]): None
Chicken PXR efficacy, ε (chicken PXR [4]; chicken): 0.85
EC50 (zebrafish PXR [5]): 4.57 µM
EC50 (chicken PXR [6]): 4.17 µM
EC50 (human PXR [7]; [16]): 6.31 µM

C[C@]12CC[C@H](O)C[C@@H]1CC[C@@H]1[C@@H]2CC[C@]2(C)C=CC[C@@H]12 [AN21, 5α-Androst-16-en-3β-ol]
zfPXR Efficacy (zebrafish PXR [2]; zebrafish): 2.11
Toxicity (HepG2 cells [3]; human, 24 hr): 50 µM
Chicken PXR efficacy, ε (chicken PXR [4]; chicken): 2.99
EC50 (zebrafish PXR [5]): 3.31 µM
EC50 (chicken PXR [6]): 7.24 µM
EC50 (human PXR [7]): 4.79 µM

C[C@]12CCC(=O)C[C@@H]1CC[C@@H]1[C@@H]2CC[C@]2(C)C=CC[C@@H]12 [AN22, 5α-Androst-16-en-3-one]
zfPXR Efficacy (zebrafish PXR [2]; zebrafish): 0.68
Toxicity (HepG2 cells [3]; human, 24 hr): 100 µM
Chicken PXR efficacy, ε (chicken PXR [4]; chicken): 0.77
EC50 (zebrafish PXR [5]): 2.63 µM
EC50 (chicken PXR [6]): 10.2 µM
EC50 (human PXR [7]): 3.02 µM

C[C@H](CCC(=O)O)[C@H]1CC[C@H]2[C@@H]3CC[C@@H]4C[C@H](O)CC[C@]4(C)[C@H]3C[C@H](O)[C@]12C [BI008, Deoxycholic acid]
Mouse PXR Activity (mouse PXR [8]; [17]): No effect
Rat PXR efficacy, ε (rat PXR [9]): 0.32
Chicken PXR Activity (chicken PXR [4]): No effect
EC50 (rat PXR [10]): 10 µM
EC50 (rabbit PXR): 36.3 µM
Rabbit PXR efficacy, ε (rabbit PXR): 0.37

C[C@H](CCC(=O)NCCS(=O)(=O)O)[C@H]1CC[C@H]2[C@@H]3[C@H](O)C[C@@H]4C[C@H](O)CC[C@]4(C)[C@H]3C[C@H](O)[C@]12C [BI022, Taurocholic acid]
Rat PXR Activity (rat PXR [9]; [17]): No effect
Chicken PXR Activity (chicken PXR [4]): No effect
EC50 (mouse PXR [11]): 85.1 µM

CC(C)CCC[C@@H](C)[C@H]1CC[C@H]2[C@@H]3[C@H](O)C[C@@H]4C[C@H](O)CC[C@]4(C)[C@H]3C[C@H](O)[C@]12C [BI023, 5β-Cholestan-3α,7α,12α-triol]
Mouse PXR efficacy, ε (mouse PXR [8]; [18]): 1.23
Rat PXR efficacy, ε (rat PXR [9]): 0.72
Chicken PXR efficacy, ε (chicken PXR [4]; chicken): 0.27
EC50 (mouse PXR [11]): 1.41 µM
EC50 (rat PXR [10]): 2.24 µM
EC50 (chicken PXR [6]): 1.29 µM
EC50 (rabbit PXR): 3.89 µM
Rabbit PXR efficacy, ε (rabbit PXR): 0.37

CC(CCCC(CO)COS(=O)(=O)O)[C@H]1CCC2C3C(C[C@H](O)[C@@]21C)[C@@]1(C)CC[C@@H](O)C[C@@H]1C[C@H]3O (stereo partly drawn) [BI036, 5β-Cholestan-3α,7α,12α,26-tetrol-27-sulfate]
Activation of human PXR (in words) (human PXR [1]): activated
Activation of zebrafish PXR (in words) (zebrafish PXR [2]; bile salts): activated
zfPXR Efficacy (zebrafish PXR [2]; zebrafish): 0.75
Toxicity (HepG2 cells [3]): None
Mouse PXR efficacy, ε (mouse PXR [8]; [18]): 0.29
Rat PXR efficacy, ε (rat PXR [9]): 0.28
Chicken PXR efficacy, ε (chicken PXR [4]; chicken): 0.61
EC50 (zebrafish PXR [5]): 43.7 µM
EC50 (mouse PXR [11]): 16.6 µM
EC50 (rat PXR [10]): 31.6 µM
EC50 (chicken PXR [6]): 30.9 µM
EC50 (rabbit PXR): 81.3 µM
Rabbit PXR efficacy, ε (rabbit PXR): 0.43
EC50 (human PXR [7]; [16]): 25.7 µM

Clc1cc2c(cc1Cl)Oc1cc(Cl)c(Cl)cc1O2 [MI34, 2,3,7,8-tetrachlorodibenzo-p-dioxin]
zfPXR Efficacy (zebrafish PXR [2]; [13]): 6.17
Mouse PXR efficacy, ε (mouse PXR [8]; [18]): 1.60
Rat PXR efficacy, ε (rat PXR [9]): 0.83
Chicken PXR efficacy, ε (chicken PXR [4]; [14]): 0.06
EC50 (zebrafish PXR [5]; [15]): 0.479 µM
EC50 (mouse PXR [11]): 0.1 µM
EC50 (rat PXR [10]): 0.2 µM
EC50 (chicken PXR [6]): 0.0912 µM
Activation of rabbit PXR (in words) (rabbit PXR): inactive
Rabbit PXR Activity (rabbit PXR; [17]): No effect
Toxicity (HepG2 cells [12]): 10 µM
EC50 (human PXR [7]): 0.0676 µM
hPXR Efficacy (human PXR [7]; relative to 10 μM rifampicin, assigned an efficacy of 1.0): 1.78

CC(=O)[C@H]1CC[C@H]2[C@@H]3CC[C@@H]4CC(=O)CC[C@]4(C)[C@H]3CC[C@]12C [PR2, 5β-Pregnan-3,20-dione]
hPXR Efficacy (human PXR [1]): 0.97
zfPXR Efficacy (zebrafish PXR [2]; zebrafish): 0.85
Toxicity (HepG2 cells [3]): None
Mouse PXR efficacy, ε (mouse PXR [8]; mouse): 5.36 (ε = 0.84)
Chicken PXR efficacy, ε (chicken PXR [4]; chicken): 5.59 (ε = 0.81)
EC50 (zebrafish PXR [5]): 0.832 µM
EC50 (mouse PXR [11]): 4.37 µM
EC50 (rat PXR [10]): 5.75 µM
EC50 (chicken PXR [6]): 2.57 µM
EC50 (rabbit PXR): 12.6 µM
EC50 (human PXR [7]; hPXR Activity): 2.57 µM
